Consider three molecules from patent US20130203649A1, “INHIBITORS OF TLR SIGNALING BY TARGETING TIR DOMAIN INTERFACES” (UNIVERSITY OF MARYLAND, BALTIMORE, priority 2012, published 2013).

Residues, ends and D or L forms follow the SMILES beside them. No end group written: not given here.

What all share (assay type): cell-based
The target in one experiment is T1, TLR2/TLR1 heterodimer (Mus musculus, UniProt Q9QUN7).
T1 construct: endogenous in cells; host or cells: thioglycollate-elicited mouse peritoneal macrophages
T1 sequence (Q9QUN7 25-784, one chain of several): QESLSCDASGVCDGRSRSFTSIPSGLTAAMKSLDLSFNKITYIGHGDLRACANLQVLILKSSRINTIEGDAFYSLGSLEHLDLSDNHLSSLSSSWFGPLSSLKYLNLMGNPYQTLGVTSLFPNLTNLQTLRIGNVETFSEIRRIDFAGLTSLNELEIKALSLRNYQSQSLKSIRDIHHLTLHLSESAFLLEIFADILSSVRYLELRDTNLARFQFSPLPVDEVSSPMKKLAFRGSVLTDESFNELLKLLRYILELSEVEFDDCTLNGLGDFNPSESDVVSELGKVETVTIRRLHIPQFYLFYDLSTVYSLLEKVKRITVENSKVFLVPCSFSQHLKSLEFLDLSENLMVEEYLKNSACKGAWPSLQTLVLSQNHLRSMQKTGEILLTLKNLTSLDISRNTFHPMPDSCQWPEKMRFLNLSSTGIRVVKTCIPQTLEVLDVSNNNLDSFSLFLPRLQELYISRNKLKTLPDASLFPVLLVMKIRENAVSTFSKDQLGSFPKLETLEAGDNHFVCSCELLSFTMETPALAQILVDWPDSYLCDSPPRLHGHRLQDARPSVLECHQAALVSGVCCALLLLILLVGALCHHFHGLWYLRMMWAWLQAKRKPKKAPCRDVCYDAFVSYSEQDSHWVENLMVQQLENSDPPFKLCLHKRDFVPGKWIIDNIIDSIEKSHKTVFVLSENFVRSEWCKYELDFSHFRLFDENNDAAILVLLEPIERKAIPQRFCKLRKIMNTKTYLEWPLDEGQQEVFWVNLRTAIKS
The experiment in a line: P3C-induced cytokine mRNA expression in mouse macrophages. Conditions: P3C 500 ng/ml, 1 h. An excerpt: (§1) Total cellular RNA was isolated using Tripure from Roche (San Francisco, Calif.) following manufacture's protocol. RNA was then reverse transcribed using AMV Reverse Transcriptase from Promega (Madison, Wis.) with poly-T priming as per manufacturer's directions. cDNA was then quantified by real-time PCR using Applied Biosystems Fast SYBR Green PCR Master Mix and an ABI Prism 7500HT cycler. Primers used for detection: hypoxanthine phosphoribosyltransferase (HPRT) (forward: […] (SEQ ID NO:51), reverse: […] (SEQ ID NO:52)), TNFα (forward: […] (SEQ ID NO:53), reverse: […] (SEQ ID NO:54)), IL-1β (forward: […] (SEQ ID NO:55), reverse: […] (SEQ ID NO:56)), IFNβ (forward: […] (SEQ ID NO:57), reverse: CTCGGACCACCATCCAGG (SEQ ID NO:58)) and RANTES (forward: […] (SEQ ID NO:59), reverse: […] (SEQ ID NO:60)). The primers were designed using Primer Express 2.0 (Applied Biosystems). Using HPRT as reference, the ΔCt method was used to calculate relative gene expression. One-way ANOVA was preformed, as well as Dunnett's multiple comparison post hoc test with a p≦0.01 selected as the level of significance.
(§2) Protein-free Escherichia coli K235 LPS was used at final concentration of 10 ng/ml to stimulate cells. S-[2,3-bis(palmitoyloxy)-(2-RS)-propyl]-N-palmitoyl-(R)-Cys-Ser-Lys4-OH (P3C) and S-[2,3-bis(palmitoyloxy)-(2-RS)-propyl]-[R]-Cys-Ser-Lys4-OH (P2C) were purchased from EMC microcollections GmbH (Tubingen, Germany) and used for cell stimulation at 500 and 50 ng/ml, respectively. Phospho-ERK1/2 and phospho-JNK1/2 rabbit Abs were obtained from Cell Signaling Technology, Inc. β-actin rabbit Ab were from SantaCruz Biotechnology, Inc.
(§3) Because of the role TRAP plays in TLR2 signaling, TIRAP TIR-derived decoy peptide effects on TLR2-induced cytokine mRNA expression were examined. Thioglycollate-elicited mouse macrophages were stimulated either by P2C, an agonist that induces signaling through TLR2/TLR6 heterodimerization, or P3C, a TLR2/TLR1 agonist, and effects of TIRAP TR-derived decoy peptides on induction of cytokine mRNA were examined. […] To confirm the inhibitory effect of TR3 and TR6 on P3C-induced signaling, IL-6 and TNF-α concentration was measured in macrophage supernatants collected 5 h after stimulation of cells with P3C. […] Concordantly, both TR3 and TR6 diminished the P3C-induced ERK phosphorylation (FIG. 3D).
(§4) C57BL/6J mice were obtained from The Jackson Laboratory (BarHarbor, Me.). Harvesting, culturing, and stimulation of peritoneal macrophages were described in previous publications (1, 18, 19). Escherichia coli K235 LPS (34) was used at the final concentration of 100 ng/ml. The 2,3-bis(palmitoyloxy)-(2-RS)-propyl-N-palmitoyl-(R)-Cys-Ser-Lys4-OH (P3C) and S[2,3-bis(palmitoyloxy)-(2-RS)-propyl]-[R]-Cys-Ser-Lys4-OH (P2C) (EMC Microcollections, Tubingen, Germany) were used at 500 and 50 ng/ml, respectively. Oligonucleotide (ODN) 1668 and low m.w. polyinosinic-polycytidylic acid [poly(I:C)] in complex with LyoVec were obtained from InvivoGen; these agonists were used at 2.5 μM and 400 ng/ml, respectively.

The next experiment concerns the target T2, TLR2/TLR6 heterodimer (Mus musculus, UniProt Q9QUN7).
T2 construct: endogenous in cells; host or cells: thioglycollate-elicited mouse peritoneal macrophages
The experiment in a line: P2C-induced cytokine mRNA expression in mouse macrophages. As to conditions: P2C 50 ng/ml, 1 h.
From the text: as §1, §2, §3, §4

The target in another experiment is T3, TLR2 (Mus musculus, UniProt Q9QUN7).
T3 construct: Primary peritoneal macrophages were obtained by peritoneal lavage; endogenous in cells; host or cells: thioglycollate-elicited mouse peritoneal macrophages
T3 sequence (Q9QUN7 25-784): as the sequence (Q9QUN7 25-784, one chain of several) above
The experiment in a line: Inhibition of TLR2 signaling in thioglycollate-elicited mouse macrophages (effective concentration, TLR2 agonists P3C/P2C). Conditions: mouse macrophages, P3C/P2C. On the procedure: C57BL/6J mice were obtained from The Jackson Laboratory (Bar Harbor, Me.). Primary peritoneal macrophages were obtained by peritoneal lavage 4 days after intraperitoneal injection (3 ml) of sterile 3% thioglycolate broth. Washed cells were resuspended in RPMI 1640 which contained 2% FBS, 1% penicillin:streptomycin and 2 mM L-glutamine. After plating, cells were incubated overnight at 37° C. and then washed with PBS to remove non-adherent cells. Cells were exposed to peptides 30 min before stimulation with a TLR agonist.
as §2, §3, §4

T2 sequence (Q9QUN7 25-784, one chain of several): as above

As to RQIKIWFQNRRMKWKKPGFLRDPWCKYQML [TR6], the “P3C-induced TNFα and IL-1β mRNA” value was “inhibited” on TLR2/TLR1 heterodimer (20 μM peptide) and “profoundly inhibited” at TLR2/TLR1 heterodimer (40 μM peptide). Also, the “P2C-induced TNFα and IL-1β mRNA” value on TLR2/TLR6 heterodimer (20 μM peptide) is reported as “significantly less”; on TLR2/TLR6 heterodimer (40 μM peptide) it was “did not affect significantly”.
With RQIKIWFQNRRMKWKKEGSQASLRCF [TR3], the “Inhibition of TLR2 signaling (overall)” value on TLR2 is recorded as “inhibits”. For the same molecule, the entries for the “P3C-induced TNFα and IL-1β mRNA” value at TLR2/TLR1 heterodimer (20 μM peptide) and on TLR2/TLR1 heterodimer (40 μM peptide) were “inhibited” and “profoundly inhibited”, respectively. Also, the figures for the “P2C-induced TNFα and IL-1β mRNA” value at TLR2/TLR6 heterodimer (20 μM peptide) and on TLR2/TLR6 heterodimer (40 μM peptide) were “significantly less” and “did not affect significantly”, respectively.
For the molecule `CC[C@H](C)[C@H](NC(=O)[C@H](CCCCN)NC(=O)[C@@H](NC(=O)[C@H](CCC(N)=O)NC(=O)[C@@H](N)CCCNC(=N)N)[C@@H](C)CC)C(=O)N[C@@H](Cc1c[nH]c2ccccc12)C(=O)N[C@@H](Cc1ccccc1)C(=O)N[C@@H](CCC(N)=O)C(=O)N[C@@H](CC(N)=O)C(=O)N[C@@H](CCCNC(=N)N)C(=O)N[C@@H](CCCNC(=N)N)C(=O)N[C@@H](CCSC)C(=O)N[C@@H](CCCCN)C(=O)N[C@@H](Cc1c[nH]c2ccccc12)C(=O)N[C@@H](CCCCN)C(=O)N[C@@H](CCCCN)C(=O)N[C@@H](CCC(=O)O)C(=O)N[C@@H](CC(C)C)C(=O)N[C@@H](CS)C(=O)N[C@@H](CCC(N)=O)C(=O)N[C@@H](C)C(=O)N[C@@H](CC(C)C)C(=O)N[C@@H](CO)C(=O)N[C@@H](CCCNC(=N)N)C(=O)N[C@@H](CO)C(=O)N[C@@H](Cc1c[nH]cn1)C(=O)N[C@@H](CS)C(=O)N[C@@H](CCCNC(=N)N)C(=O)O` [TR5] (H-RQIKIWFQNRRMKWKKELCQALSRSHCR-OH), the “Inhibition of TLR2 signaling (overall)” value on TLR2 is given as “does not”.
